Experimental data from patent publication US20250270246A1, “LINCOSAMIDES AND USES THEREOF” (President and Fellows of Harvard College, priority 2022, published 2025).
Counter-ions that a name gives are not always drawn. Like-named read-outs stand apart in the source and are kept apart here.

Key:
Experiment in all cases: MIC by broth microdilution (CLSI)
Format in all cases: cell-based
[1] = system: E. coli ATCC 25922 (HAV#006); conditions: Escherichia coli, ATCC25922, 24 h, read-out: MIC E. coli ATCC 25922
Procedure, shortened: (§1)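 Strains were grown overnight on blood agar at 35° C, suspended in CaMHB to 0.5 McFarland, then diluted to 5×10^5 CFU/mL. Compounds (64-0.06 μg/mL, 2.5% final DMSO) were tested by CLSI microdilution. Visible growth was scored after 24 h.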

S. aureus HAV#216, cfr = conditions: Staphylococcus aureus, read-out: MIC S. aureus HAV#216, cfr
Procedure, shortened: as §1

[2] = system: E. faecium HAV#318, VRE; clinical; conditions: Enterococcus faecium, read-out: MIC E. faecium HAV#318, VRE
Procedure, shortened: as §1

[3] = system: K. pneumoniae HAV#402, FQ-R; conditions: Klebsiella pneumoniae, read-out: MIC K. pneumoniae HAV#402, FQ-R
Procedure, shortened: as §1

[4] = system: S. pyogenes HAV#033, c-ermB; conditions: Streptococcus pyogenes, read-out: MIC S. pyogenes HAV#033, c-ermB
Procedure, shortened: as §1

[5] = system: E. faecalis ATCC 29212 (HAV#005); conditions: Enterococcus faecalis, ATCC29212, 24 h, read-out: MIC E. faecalis ATCC 29212
Procedure, shortened: as §1

[6] = system: S. aureus HAV#031, c-ermA; conditions: Staphylococcus aureus, read-out: MIC S. aureus HAV#031, c-ermA
Procedure, shortened: as §1

E. coli HAV#040, LptD = conditions: Escherichia coli, 24 h, read-out: MIC E. coli HAV#040, LptD
Procedure, shortened: as §1

[7] = system: S. aureus ATCC 29213 (HAV#001); conditions: Staphylococcus aureus, ATCC29213, 24 h, read-out: MIC S. aureus ATCC 29213
Procedure, shortened: as §1

[8] = system: A. baumannii ATCC 19606 (HAV#010); conditions: Acinetobacter baumannii, ATCC19606, 24 h, read-out: MIC A. baumannii ATCC 19606
Procedure, shortened: as §1

[9] = system: K. oxytoca HAV#450; Clinical; conditions: Klebsiella oxytoca, read-out: MIC K. oxytoca HAV#450
Procedure, shortened: as §1

E. coli HAV#038, ΔTolC = conditions: Escherichia coli, 24 h, read-out: MIC E. coli HAV#038, ΔTolC
Procedure, shortened: as §1

E. coli ΔtolC = conditions: Escherichia coli, 24 h, read-out: MIC E. coli ΔtolC, ΔtolC; CaMHB, 24 h incubation
Procedure, shortened: as §1

E. faecium JMI-990536 = conditions: Enterococcus faecium, JMI990536, 24 h, read-out: MIC E. faecium JMI-990536
Procedure, shortened: as §1

S. pneumoniae c-ermB = conditions: Streptococcus pneumoniae, 24 h, read-out: MIC S. pneumoniae c-ermB
Procedure, shortened: as §1

E. coli lptD mutant = conditions: Escherichia coli, 24 h, read-out: MIC E. coli lptD mutant, lptD mutant / ΔlptD mutant; CaMHB, 24 h incubation
Procedure, shortened: as §1

S. aureus MMX 3035 = conditions: Staphylococcus aureus, MMX3035, 24 h, read-out: MIC S. aureus MMX 3035
Procedure, shortened: as §1

K. pneumoniae JMI-991193 = conditions: Klebsiella pneumoniae, JMI991193, 24 h, read-out: MIC K. pneumoniae JMI-991193
Procedure, shortened: as §1

S. aureus Clinical (cfr) = conditions: Staphylococcus aureus, 24 h, read-out: MIC S. aureus Clinical (cfr)
Procedure, shortened: as §1

[10] = HAV#006, ATCC 25922, CaMHB, 24 h incubation
[11] = HAV#005, ATCC 29212, CaMHB, 24 h incubation
[12] = HAV#001, ATCC 29213, CaMHB, 24 h incubation
[13] = HAV#010, ATCC 19606, CaMHB, 24 h incubation
[14] = JMI-990536, CaMHB, 24 h incubation
[15] = MMX 3035, CaMHB, 24 h incubation
[16] = JMI-991193, CaMHB, 24 h incubation
[17] = Clinical (cfr), CaMHB, 24 h incubation

Structure (SMILES)	MIC [1] [µg/mL]	MIC (S. aureus HAV#216, cfr; 24 h) [µg/mL]	MIC ([2]; 24 h) [µg/mL]	MIC ([3]; 24 h) [µg/mL]	MIC ([4]; 24 h) [µg/mL]	MIC [5] [µg/mL]	MIC ([6]; 24 h) [µg/mL]	MIC (E. coli HAV#040, LptD) [µg/mL]	MIC [7] [µg/mL]	MIC [8] [µg/mL]	MIC ([9]; 24 h) [µg/mL]	MIC (E. coli HAV#038, ΔTolC) [µg/mL]	MIC [1, 10] [µg/mL]	MIC [5, 11] [µg/mL]	MIC [7, 12] [µg/mL]	MIC [8, 13] [µg/mL]	MIC (E. coli ΔtolC) [µg/mL]	MIC (S. pneumoniae c-ermB) [µg/mL]	MIC (E. coli lptD mutant) [µg/mL]	further results
CC(C)C[C@@H]1CCO[C@@H]2[C@H](CN[C@@H]2C(=O)N[C@H]2C3OC(SCC/C=C\[C@H]2C)C(O)C(O)C3O)C1 (single isomer, unassigned) [FSA1507066, formate]	4	0.5	0.25	16	0.125	≤ 0.06	0.5	0.25	≤ 0.06	2	4	0.125								
CC(C)C[C@@H]1CCO[C@@H]2[C@H](CN[C@@H]2C(=O)N[C@H]2C3OC(SCC/C=C/[C@@H]2C)C(O)C(O)C3O)C1 (single isomer, unassigned) [FSA1507068, formate salt]								0.5				0.5	4	0.125	≤ 0.06	4				MIC (S. aureus HAV#216, cfr; cfr, CaMHB, 24 h incubation): 2 µg/mL; MIC ([2]; CaMHB, 24 h incubation): 0.5 µg/mL; MIC ([3]; FQ-R, CaMHB, 24 h incubation): 8 µg/mL; MIC ([4]; c-ermB, CaMHB, 24 h incubation): 0.25 µg/mL; MIC ([6]; c-ermA, CaMHB, 24 h incubation): 0.5 µg/mL; MIC ([9]; CaMHB, 24 h incubation): 8 µg/mL
CC(C)C[C@@H]1CCO[C@@H]2[C@@H](C1)CN(C)[C@@H]2C(=O)N[C@H]1C2OC(SCC/C=C\[C@H]1C)C(O)C(O)C2O (single isomer, unassigned) [FSA1508001, formate]	8	1	0.25	64	0.25	0.125	0.5	0.25	0.25	2	16	0.25								
CC(C)C[C@@H]1CCO[C@@H]2[C@H](CN[C@@H]2C(=O)N[C@@H]2C/C=C\CCS[C@H]3O[C@H]2[C@H](O)[C@H](O)[C@H]3O)C1 [FSA1507013, (4S,5aS,8S,8aR)-4-isobutyl-8-(((1R,8R,9R,10R,11S,12R,Z)-10,11,12-trihydroxy-13-oxa-2-thiabicyclo[7.3.1]tridec-5-en-8-yl)carbamoyl) octahydro-2H-oxepino[2,3-c]pyrrol-7-ium formate]	2			8	0.5	0.125	4	0.5	0.125	2	2	0.125								
CC(C)C[C@@H]1CCO[C@@H]2[C@@H](C1)CN(C)[C@@H]2C(=O)N[C@@H]1C/C=C\CCS[C@H]2O[C@H]1[C@H](O)[C@H](O)[C@H]2O [FSA1508003, (4S,5aS,8S,8aR)-4-isobutyl-7-methyl-8-(((1R,8R,9R,10R,11S,12R,Z)-10,11,12-trihydroxy-13-oxa-2-thiabicyclo[7.3.1]tridec-5-en-8-yl)carbamoyl) octahydro-2H-oxepino[2,3-c]pyrrol-7-ium formate]	4	8	1	16	2	0.125	2	0.25	0.125	2	8	0.25								
CC(C)C[C@@H]1CCO[C@@H]2[C@H](CN[C@@H]2C(=O)N[C@@H]2C/C=C\C[C@H](CO)S[C@H]3O[C@H]2[C@H](O)[C@H](O)[C@H]3O)C1 [FSA1606033, (4S,5aS,8S,8aR)-4-isobutyl-N-((1R,3R,8R,9R,10R,11S,12R,Z)-10,11,12-trihydroxy-3-(hydroxymethyl)-13-oxa-2-thiabicyclo[7.3.1]tridec-5-en-8-yl) octahydro-2H-oxepino[2,3-c]pyrrole-8-carboxamide hydrochloride salt]													16	1	1	64	1	4	4	MIC (E. faecium JMI-990536; [14]): 16 µg/mL; MIC (S. aureus MMX 3035; [15]): 16 µg/mL; MIC (K. pneumoniae JMI-991193; [16]): > 64 µg/mL; MIC (S. aureus Clinical (cfr); [17]): 32 µg/mL
CC(C)C[C@@H]1CCO[C@@H]2[C@H](CN[C@@H]2C(=O)N[C@@H]2C/C=C\C[C@@H](CO)S[C@H]3O[C@H]2[C@H](O)[C@H](O)[C@H]3O)C1 [FSA1606034, (4S,5aS,8S,8aR)-4-isobutyl-N-((1R,3S,8R,9R,10R,11S,12R,Z)-10,11,12-trihydroxy-3-(hydroxymethyl)-13-oxa-2-thiabicyclo[7.3.1]tridec-5-en-8-yl) octahydro-2H-oxepino[2,3-c]pyrrole-8-carboxamide hydrochloride salt]													64	2	1	> 64	2	16	8	MIC (E. faecium JMI-990536; [14]): > 64 µg/mL; MIC (S. aureus MMX 3035; [15]): 64 µg/mL; MIC (K. pneumoniae JMI-991193; [16]): > 64 µg/mL; MIC (S. aureus Clinical (cfr); [17]): > 64 µg/mL
CC(C)C[C@@H]1CCO[C@@H]2[C@H](CN[C@@H]2C(=O)N[C@H]2[C@H]3O[C@H](S[C@H](c4cn(-c5cccc(Cl)c5)nn4)C/C=C\[C@H]2C)[C@H](O)[C@@H](O)[C@H]3O)C1 [FSA1609015, (4S,5aS,8S,8aR)—N-((1R,3S,7R,8R,9R,10R,11S,12R,Z)-3-(1-(3-chlorophenyl)-1H-1,2,3-triazol-4-yl)-10,11,12-trihydroxy-7-methyl-13-oxa-2-thiabicyclo[7.3.1]tridec-5-en-8-yl)-4-isobutyloctahydro-2H-oxepino[2,3-c]pyrrole-8-carboxamide formate salt]	8					2			1	8							2	0.25	2	MIC (E. faecium JMI-990536): 0.5 µg/mL; MIC (S. aureus MMX 3035): 2 µg/mL; MIC (K. pneumoniae JMI-991193): 32 µg/mL; MIC (S. aureus Clinical (cfr)): 2 µg/mL
